Assay results reported in patent US20090124606A1, “Composition for Treatment of Psychosis” (priority 2005, published 2009).

Legend:
[1] = system: NMRI mice; assay: Inhibition of catalepsy generated by haloperidol (45° inclined grid); format: in vivo
Procedure: Experiments were elaborated on 20-25 g weight NMRI mice. Groups of 10 mice were treated intraperitoneally with 15 mg/kg of haloperidol and carrier agent. Deramciclane (and carriers) were administered orally in different doses 60 minutes later. After a subsequent 60 minutes period mice were placed to a grid which has an inclination angle of 45°. In case of the animals were motionless for more than 30 seconds on the grid the events were seen as catalepsy. The procedure was repeated in every 30 minutes for 3 hours.
The effects are shown by percentage of changes compared to control group.

[2] = molecular target: Dopamine D2 (Homo sapiens, UniProt P14416); details: read-out: Receptor Affinity (Ki); cited from earlier work
Chain of Dopamine D2 (P14416 whole entry): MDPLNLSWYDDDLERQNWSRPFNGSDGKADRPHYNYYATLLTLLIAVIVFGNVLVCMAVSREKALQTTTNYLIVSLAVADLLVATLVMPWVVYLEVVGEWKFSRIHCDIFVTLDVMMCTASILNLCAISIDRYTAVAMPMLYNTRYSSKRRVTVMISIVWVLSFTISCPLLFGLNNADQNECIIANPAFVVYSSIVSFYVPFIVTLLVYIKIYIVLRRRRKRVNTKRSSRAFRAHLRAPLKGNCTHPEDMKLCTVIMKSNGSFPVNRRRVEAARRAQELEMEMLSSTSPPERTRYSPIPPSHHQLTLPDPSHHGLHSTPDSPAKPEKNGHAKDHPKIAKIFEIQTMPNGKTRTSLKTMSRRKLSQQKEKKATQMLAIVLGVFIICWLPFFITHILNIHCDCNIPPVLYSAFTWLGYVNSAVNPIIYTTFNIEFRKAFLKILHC

[3] = molecular target: 5-HT2A (Homo sapiens, UniProt P28223); details: read-out: Receptor Affinity (Ki); cited from earlier work
Chain of 5-HT2A (P28223 whole entry, species assumed): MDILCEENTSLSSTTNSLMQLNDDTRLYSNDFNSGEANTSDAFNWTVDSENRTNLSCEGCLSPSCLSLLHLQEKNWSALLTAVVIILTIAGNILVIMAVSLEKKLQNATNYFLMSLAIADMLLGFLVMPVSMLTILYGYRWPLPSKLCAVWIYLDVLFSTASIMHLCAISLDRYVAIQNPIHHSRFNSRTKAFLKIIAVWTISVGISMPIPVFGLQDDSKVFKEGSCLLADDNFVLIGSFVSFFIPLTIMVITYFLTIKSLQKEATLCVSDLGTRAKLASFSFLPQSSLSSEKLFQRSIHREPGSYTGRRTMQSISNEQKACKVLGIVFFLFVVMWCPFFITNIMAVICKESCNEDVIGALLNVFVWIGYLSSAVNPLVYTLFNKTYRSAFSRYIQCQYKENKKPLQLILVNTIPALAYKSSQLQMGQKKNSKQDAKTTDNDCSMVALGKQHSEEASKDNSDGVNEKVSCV

[4] = molecular target: 5-HT2C (Homo sapiens, UniProt P28335); details: read-out: Receptor Affinity (Ki); cited from earlier work
Chain of 5-HT2C (P28335 33-458, species assumed): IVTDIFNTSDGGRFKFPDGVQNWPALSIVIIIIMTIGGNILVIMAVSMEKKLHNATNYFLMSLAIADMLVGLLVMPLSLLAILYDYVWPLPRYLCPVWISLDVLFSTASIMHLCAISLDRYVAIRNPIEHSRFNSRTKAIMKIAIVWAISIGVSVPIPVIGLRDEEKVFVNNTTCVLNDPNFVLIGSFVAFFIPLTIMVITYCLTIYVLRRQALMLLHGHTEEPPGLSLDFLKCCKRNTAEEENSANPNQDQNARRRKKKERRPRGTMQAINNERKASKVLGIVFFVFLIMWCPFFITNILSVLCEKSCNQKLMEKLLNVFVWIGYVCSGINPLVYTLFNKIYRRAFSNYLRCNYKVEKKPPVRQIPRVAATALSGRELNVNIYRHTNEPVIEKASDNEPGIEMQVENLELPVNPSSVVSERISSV

[5] = deramciclane alone; cited from earlier work

SMILES	Catalepsy (average ± SE)/10 animals ([1]; deramciclane 20 mg/kg po. + haloperidol 15 mg/kg ip., p < 0.05 vs haloperidol)	Catalepsy (average ± SE)/10 animals ([1]; deramciclane 40 mg/kg po. + haloperidol 15 mg/kg ip., p < 0.05 vs haloperidol)	Catalepsy (average ± SE)/10 animals ([1]; deramciclane 80 mg/kg po. + haloperidol 15 mg/kg ip., p < 0.05 vs haloperidol)	Inhibition of catalepsy generated by haloperidol (in words) ([1]; deramciclane 20-80 mg/kg po., haloperidol 15 mg/kg ip.)	Ki [2] [nM]	Ki [3] [nM]	Ki [4] [nM]	Catalepsy caused by the compound by itself (in words) [5]	Catalepsy (average ± SE)/10 animals ([1]; haloperidol 15 mg/kg ip. alone (plus carrier))
CN(C)CCO[C@]1(c2ccccc2)C[C@H]2CC[C@]1(C)C2(C)C [Deramciclane, (1R,2S,4R)-(−)-2-[N,N-(dimethylamino-ethoxy)]-2-phenyl-1,7,7-trimethyl-biciklo[2.2.1]heptane]	6.5 ± 0.7 /10 animals	4.7 ± 1.3 /10 animals	3.5 ± 1.5 /10 animals	inhibits the catalepsy generated by haloperidol in a dose dependent way	113	11	27	does not cause catalepsy by itself	–
O=C(CCCN1CCC(O)(c2ccc(Cl)cc2)CC1)c1ccc(F)cc1 [Haloperoidol, haloperidol, reference compound]	–	–	–	–	–	–	–	–	9.3 ± 0.4 /10 animals
